Data as given in US20210244720A1, “Therapeutic Tyrosine Kinase Inhibitors for Relapsing Multiple Sclerosis (RMS)” (Genzyme Corporation, priority 2020, published 2021).

Columns and labels:
[1] = target: T1, CYP2C8 (Homo sapiens, UniProt P10632); assay: Preclinical drug metabolism studies, CYP2C8; format: in vitro ADME
T1 sequence (P10632 1-490): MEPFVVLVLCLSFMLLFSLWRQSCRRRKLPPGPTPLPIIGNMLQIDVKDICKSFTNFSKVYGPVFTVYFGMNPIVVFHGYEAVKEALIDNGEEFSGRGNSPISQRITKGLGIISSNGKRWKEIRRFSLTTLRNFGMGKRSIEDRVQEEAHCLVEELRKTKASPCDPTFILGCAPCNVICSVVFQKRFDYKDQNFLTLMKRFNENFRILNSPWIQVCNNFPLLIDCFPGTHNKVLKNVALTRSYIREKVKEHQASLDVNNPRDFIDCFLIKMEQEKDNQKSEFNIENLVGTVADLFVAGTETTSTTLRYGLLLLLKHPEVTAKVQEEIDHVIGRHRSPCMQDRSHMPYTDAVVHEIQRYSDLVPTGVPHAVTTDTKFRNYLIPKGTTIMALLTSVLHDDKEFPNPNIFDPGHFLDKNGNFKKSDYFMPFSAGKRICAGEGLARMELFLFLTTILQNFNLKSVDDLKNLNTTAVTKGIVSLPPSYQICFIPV
From the text: (§1) See Table 12 for the list of drugs not to be used.

[2] = system: RGS1 and BTK-dependent gene signature in primary mouse microglial cells; conditions: 2.5 μM, IgG 50 μg/mL, 24 h, FPKM
From the text: Primary cultures of microglia were obtained from brains of C57BL/6 postnatal mice. The mice were anesthetized with CO2 and subsequently decapitated with sterilized scissors. Brains were harvested and meninges were removed. The brains were placed in ice cold complete DMEM/F12 medium and kept on ice until processing.
The brains were removed from the medium by filtering through a 40 μm cell strainer. […] The dissociation reaction was quenched with an equal volume of complete DMEM/F12. The tissue was centrifuged at 300×g for 7 minutes. The tissue pellet was washed 3 times with complete DMEM/F12, centrifuged at 300×g for 7 minutes. After the final wash, tissue pellet was re-suspended in complete DMEM/F12 (˜1 mL/brain), triturated until no chunks are visible, then filtered through a 70 μm cell strainer. […]
The single cell suspensions were filtered through 70 μm cell strainers, centrifuged at 200×g for 6 minutes, and re-suspended at 1×10^8 cells/mL in separation media. […] After the last wash, the labeled CD11b+ microglia cells were resuspended in serum free NbActiv1 media, counted and re-suspended at the desired concentration. […]
Analysis of the RNASeq library data was conducted within Omicsoft's Array Studio platform following a standard RNAseq protocol. In general, the sequencing reads were quality checked and the samples were mapped to the mouse mm10 reference genome using the ENSEMBL.R89 gene model. […]

[3] = system: participants with relapsing multiple sclerosis (RMS); assay: Phase 2b dose-finding study in RMS: brain MRI lesion counts; conditions: for New Gd-enhancing T1-hyperintense lesions: patients with 0 lesions, % / New Gd-enhancing T1-hyperintense lesions: patients with 1 lesion, % / New Gd-enhancing T1-hyperintense lesions: patients with 2 lesions, % / New Gd-enhancing T1-hyperintense lesions: patients with >=3 lesions, % / New or enlarging T2 lesions: patients with 0 lesions, % / New or enlarging T2 lesions: patients with 1 lesion, % / New or enlarging T2 lesions: patients with 2 lesions, % / New or enlarging T2 lesions: patients with >=3 lesions, % / Total Gd-enhancing T1-hyperintense lesions: patients with 0 lesions, % / Total Gd-enhancing T1-hyperintense lesions: patients with 1 lesion, % / Total Gd-enhancing T1-hyperintense lesions: patients with 2 lesions, % / Total Gd-enhancing T1-hyperintense lesions: patients with >=3 lesions, %: after 12 weeks
Description: People diagnosed with RMS are eligible for enrollment as long as they meet all inclusion and no exclusion criteria.
Cranial (brain) MRI with and without Gd contrast is performed. Basic MRIs are performed for all participants at all study sites and consist of T2- and T1-weighted sequences without and with Gd contrast.
New T1 Gd-enhancing hyperintense and new and enlarging T2 lesions are evaluated at each visit as per the SoA (Table 1), comparing lesion count to that from the previous MRI scan. Unless specified otherwise, the baseline brain MRI is used as the reference to assess all MRI-derived endpoints. The baseline MRI is the last MRI performed before the randomization visit. Standardized endpoint evaluation is assured by central review of brain MRI scans. Blinded central review is performed for all MRI-derived endpoints. Magnetic resonance imaging reviewers are blinded to treatment assignments and to other participant data.
The first step of this procedure tests for an efficacy signal (compared to the null hypothesis of a flat, no dose-response curve) in a procedure that controls the type 1 error. […] The second step is the Dose estimation of the dose-response curve, provided that an efficacy signal is established in the first step.
The 4-week post-randomization placebo data from Cohort 2 (i.e., Week 4 data from Cohort 2) is utilized as the placebo data at Week 12 in analysis, under the assumption of a constant rate of Gd-enhancing T1-hyperintense lesion formation if participants would be receiving placebo over 12 weeks. Participants in Cohort 2 contribute to the placebo data (at Week 4) as well as the data for 4 BTK inhibitor doses (at Week 16). […] If step 1 yields significant results, the best fitting model from the 6 predefined candidate models is chosen using the generalized Akaike information criterion (AIC).
The first step of this procedure tested for an efficacy signal (compared to the null hypothesis of a flat, no dose-response curve) in a procedure that controls the type 1 error.
The MRI assessments were excluded from the analyses if the participant was receiving systemic corticosteroids within the 30 days prior to the MRI assessment date. The 4-week post-randomization placebo data from Cohort 2 (i.e., Week 4 data from Cohort 2) was utilized as the placebo data at Week 12 in analysis under the assumption of a constant rate of Gd-enhancing T1-hyperintense lesion formation if participants were to receive placebo over 12 weeks. Participants in Cohort 2 contributed to the placebo data (at Week 4) as well as the data for 4 BTK inhibitor doses (at Week 16). The 4-week placebo run-out data from Cohort 1 was not included in the analysis. […] Test statistics and adjusted p-values were provided for all 6 candidate models.
For each secondary endpoint, a similar negative binomial model and the MCP-Mod procedure were used. As it is reasonable to assume a constant rate of lesion formation over 12 weeks under placebo treatment, the same approach as that utilized for the primary endpoint was used, i.e., using the Week 4 data in Cohort 2 as the Week 12 placebo data while accounting for within-participant correlation. Descriptive summary statistics over time were provided for each of the 4 BTK inhibitor dose groups.

[4] = system: RGS1 mRNA in brain; assay: In vivo mouse study, brain RGS1 Real-time PCR; conditions: naive mice, oral, once a day for 5 days, 0.6, 6, and 24 mg/kg
Description: Mice were sacrificed on day 5, 1 h post-final dose, and PBS perfused before brain was isolated. RNA was isolated from brain using the Rneasy Lipid tissue RNA isolation kid (Qiagen). RGS1 was quantified using Real-time PCR and Taqman probe (FIG. 6; one-way ANOVA, **p<0.01).

[5] = system: RGS1 mRNA in naive mouse microglia; assay: Naive primary mouse microglia, RGS1 quantitative Real time PCR; format: cell-based; conditions: 2.5 μM, 6 and 24 hours
Description: Primary mouse microglia were prepared from postnatal mice as described above, and were treated with 2.5 μM of the BTKi inhibitor for 6 and 24 hours. RNA was isolated and was analyzed by quantitative Real time PCR (Taqman, Thermo Fisher).

[6] = Pharmacokinetics in RMS patients, fed versus fasting status; format: in vivo, human; conditions: RMS patients of the Phase 2b study
Description: An additional PK sample is collected 3 hours post-dose (±0.5 hour) at visits during Weeks 4 and 12 for all participants in both cohorts. Data of the most recent meal prior to PK sampling are noted in the eCRF.
Additional PK parameters such as Cmax, […], and AUC at steady state are estimated using a population PK approach.
Samples from the two groups were obtained and anaylzed to evaluate pharmacokinetics parameters as described in Example 1.10 above.

[7] = system: CYP3A; assay: Preclinical drug metabolism studies, CYP3A; format: in vitro ADME
From the text: as §1

C=CC(=O)N1CCC[C@@H](n2c(=O)n(-c3ccc(Oc4ccccc4)cc3)c3c(N)nccc32)C1 [the BTK inhibitor, (R)-1-(1-acryloylpiperidin-3-yl)-4-amino-3-(4-phenoxyphenyl)-1H-imidazo[4,5-c]pyridin-2(3H)-one]
CYP2C8 metabolism [1]: substrate
RGS1 mRNA expression upregulated with IgG treatment [2]: blocked
New Gd-enhancing T1-hyperintense lesions: patients with 0 lesions, % ([3]; 5 mg daily): (71.0) %
New Gd-enhancing T1-hyperintense lesions: patients with 1 lesion, % ([3]; 5 mg daily): (6.5) %
New Gd-enhancing T1-hyperintense lesions: patients with 2 lesions, % ([3]; 5 mg daily): (9.7) %
New Gd-enhancing T1-hyperintense lesions: patients with >=3 lesions, % ([3]; 5 mg daily): (12.9) %
New or enlarging T2 lesions: patients with 0 lesions, % ([3]; 5 mg daily): (61.3) %
New or enlarging T2 lesions: patients with 1 lesion, % ([3]; 5 mg daily): (9.7) %
New or enlarging T2 lesions: patients with 2 lesions, % ([3]; 5 mg daily): (12.9) %
New or enlarging T2 lesions: patients with >=3 lesions, % ([3]; 5 mg daily): (16.1) %
Total Gd-enhancing T1-hyperintense lesions: patients with 0 lesions, % ([3]; 5 mg daily): (64.5) %
Total Gd-enhancing T1-hyperintense lesions: patients with 1 lesion, % ([3]; 5 mg daily): (12.9) %
Total Gd-enhancing T1-hyperintense lesions: patients with 2 lesions, % ([3]; 5 mg daily): (6.5) %
Total Gd-enhancing T1-hyperintense lesions: patients with >=3 lesions, % ([3]; 5 mg daily): (16.1) %
New Gd-enhancing T1-hyperintense lesions: patients with 0 lesions, % ([3]; 15 mg daily): (67.7) %
New Gd-enhancing T1-hyperintense lesions: patients with 1 lesion, % ([3]; 15 mg daily): (16.1) %
New Gd-enhancing T1-hyperintense lesions: patients with 2 lesions, % ([3]; 15 mg daily): (3.2) %
New Gd-enhancing T1-hyperintense lesions: patients with >=3 lesions, % ([3]; 15 mg daily): (12.9) %
New or enlarging T2 lesions: patients with 0 lesions, % ([3]; 15 mg daily): (48.4) %
New or enlarging T2 lesions: patients with 1 lesion, % ([3]; 15 mg daily): (22.6) %
New or enlarging T2 lesions: patients with 2 lesions, % ([3]; 15 mg daily): (9.7) %
New or enlarging T2 lesions: patients with >=3 lesions, % ([3]; 15 mg daily): (19.4) %
Total Gd-enhancing T1-hyperintense lesions: patients with 0 lesions, % ([3]; 15 mg daily): (64.5) %
Total Gd-enhancing T1-hyperintense lesions: patients with 1 lesion, % ([3]; 15 mg daily): (19.4) %
Total Gd-enhancing T1-hyperintense lesions: patients with >=3 lesions, % ([3]; 15 mg daily): (16.1) %
New Gd-enhancing T1-hyperintense lesions: patients with 0 lesions, % ([3]; 30 mg daily): (81.8) %
New Gd-enhancing T1-hyperintense lesions: patients with 1 lesion, % ([3]; 30 mg daily): (12.1) %
New Gd-enhancing T1-hyperintense lesions: patients with 2 lesions, % ([3]; 30 mg daily): (3.0) %
New Gd-enhancing T1-hyperintense lesions: patients with >=3 lesions, % ([3]; 30 mg daily): (3.0) %
New or enlarging T2 lesions: patients with 0 lesions, % ([3]; 30 mg daily): (72.7) %
New or enlarging T2 lesions: patients with 1 lesion, % ([3]; 30 mg daily): (15.2) %
New or enlarging T2 lesions: patients with 2 lesions, % ([3]; 30 mg daily): (3.0) %
New or enlarging T2 lesions: patients with >=3 lesions, % ([3]; 30 mg daily): (9.1) %
Total Gd-enhancing T1-hyperintense lesions: patients with 0 lesions, % ([3]; 30 mg daily): (75.8) %
Total Gd-enhancing T1-hyperintense lesions: patients with 1 lesion, % ([3]; 30 mg daily): (12.1) %
Total Gd-enhancing T1-hyperintense lesions: patients with 2 lesions, % ([3]; 30 mg daily): (6.1) %
Total Gd-enhancing T1-hyperintense lesions: patients with >=3 lesions, % ([3]; 30 mg daily): (6.1) %
New Gd-enhancing T1-hyperintense lesions: patients with 0 lesions, % ([3]; 60 mg daily): (90.3) %
New Gd-enhancing T1-hyperintense lesions: patients with 1 lesion, % ([3]; 60 mg daily): (6.5) %
New Gd-enhancing T1-hyperintense lesions: patients with 2 lesions, % ([3]; 60 mg daily): (3.2) %
New or enlarging T2 lesions: patients with 0 lesions, % ([3]; 60 mg daily): (87.1) %
New or enlarging T2 lesions: patients with 1 lesion, % ([3]; 60 mg daily): (3.2) %
New or enlarging T2 lesions: patients with 2 lesions, % ([3]; 60 mg daily): (9.7) %
Total Gd-enhancing T1-hyperintense lesions: patients with 0 lesions, % ([3]; 60 mg daily): (87.1) %
Total Gd-enhancing T1-hyperintense lesions: patients with 1 lesion, % ([3]; 60 mg daily): (3.2) %
Total Gd-enhancing T1-hyperintense lesions: patients with 2 lesions, % ([3]; 60 mg daily): (6.5) %
Total Gd-enhancing T1-hyperintense lesions: patients with >=3 lesions, % ([3]; 60 mg daily): (3.2) %
dose-response relationship, reduction in number of new active Gd-enhancing T1-hyperintense brain lesions ([3]; 5-60 mg once daily, 12 weeks): demonstrating a dose-response relationship
new Gd-enhancing T1-hyperintense lesions in patients with higher AUC ([3]; patients with higher exposure): very few or no new Gd-enhancing T1-hyperintense lesions
RGS1 mRNA expression in brain [4]: reduction of RGS1 mRNA expression was observed
RGS1 mRNA level in naive mouse microglia [5]: reduced
median AUC, fed state compared to fasted state [6]: substantially increased
CYP3A metabolism [7]: substrate
